Experimental findings from US6610721B2, “Imidazo heterocyclic compounds” (Novo Nordisk A/S, priority 2000, dated 2003) are described below.

By melting point is commonly meant the temperature of the solid-liquid transition.

Where a name gives a salt, the structure may show the parent alone.

The compound `Cl.Clc1ccccc1OCC1CCCc2[nH]cnc21` (centres unmarked) had a melting point of 207 to 209 °C. The figure for `Cc1cc(C#N)cc(C)c1OCC1CCCc2[nH]cnc21` (centres unmarked) (as salt: hydrochloride) is 190 to 192 °C; for `N#Cc1ccc(OCC2CCCc3[nH]cnc32)c(Cl)c1` (centres unmarked) (as salt: hydrochloride) it is 225 to 227 °C; for `O=C1CCCc2c(OCC3CCCc4[nH]cnc43)cccc21` (centres unmarked) (as salt: hydrochloride) it is 237 to 240 °C. The same measure for `Clc1ccc(OCC2CCCc3[nH]cnc32)cc1` (centres unmarked) (as salt: hydrochloride): 210 to 212 °C; for `COc1cc(C#N)ccc1OCC1CCCc2[nH]cnc21` (centres unmarked) (as salt: hydrochloride): 193 to 195 °C; for `Cl.FC(F)(F)Oc1cccc(OCC2CCc3[nH]cnc3C2)c1` (centres unmarked): 170 to 171 °C. The figure for `Cl.c1ccc(-c2cccc(OCC3CCc4[nH]cnc4C3)c2)cc1` (centres unmarked) is 165 to 167 °C; for `FC(F)(F)c1ccc(OCC2CCCc3[nH]cnc32)cc1` (centres unmarked) (as salt: hydrochloride) it is 242 to 244 °C. As to `FC(F)(F)Oc1ccc(OCC2CCCc3[nH]cnc32)cc1` (centres unmarked) (as salt: hydrochloride) [Example 58, 4-(4-Trifluoromethoxyphenoxymethyl)-4,5,6,7-tetrahydro-1H-benzimidazole, Hydrochloride], the melting point fell in the range of 202 to 209 °C. The same measure for `O=C(c1ccc(OCC2CCCc3[nH]cnc32)cc1)C1CC1` (centres unmarked) (as salt: hydrochloride) [Example 63, Cyclopropyl-[4-(4,5,6,7-tetrahydro-1H-benzimidazol-4-ylmethoxy)phenyl]methanone, hydrochloride]: 211 to 213 °C; for `Cl.Fc1ccccc1OCC1CCc2[nH]cnc2C1` (centres unmarked): 192 to 194 °C. The same measure for `N#Cc1ccc(OCC2CCCCc3[nH]cnc32)cc1` (centres unmarked) (as salt: hydrochloride) [Example 57, 4-(1,4,5,6,7,8-Hexahydrocycloheptaimidazol-4-ylmethoxy)benzonitrile, Hydrochloride]: 232 to 235 °C; for `Cl.Clc1ccccc1OCC1CCc2[nH]cnc2C1` (centres unmarked): 224 to 226 °C.
